Patent US9809542B2, “Spiroheterocyclically substituted tetramic acid derivatives” (BAYER INTELLECTUAL PROPERTY GMBH, priority 2010, dated 2017)

How the values were obtained:
Lucilia cuprina larva = experiment: Lucilia cuprina test (LUCICU); format: in vivo; settings: application rate 100 ppm; treated horse meat; after 2 days
Method: Lucilia cuprina Test (LUCICU)
(§1) Solvent: Dimethyl sulphoxide
To produce a suitable preparation of active compound, 10 mg of active compound are mixed with 0.5 ml of dimethyl sulphoxide and the concentrate is diluted with water to the desired concentration. Containers containing horse meat treated with the active compound preparation of the desired concentration are populated with about 20 Lucilia cuprina larva.
After 2 days, the kill in % is determined. 100% means that all larva have been killed; 0% means that none of the larva have been killed.

[1] = system: larva of the mustard beetle (Phaedon cochleariae); experiment: Phaedon test (PHAECO spray treatment); format: in vivo; settings: application rate 500 g/ha, Chinese cabbage leaf discs, after 7 days
Method: Phaedon Test ([…] Spray Treatment) Solvents: 78.0 parts by weight of acetone • • 1.5 parts by weight of dimethylformamide Emulsifier: 0.5 part by weight of alkylaryl polyglycol ether To produce a suitable preparation of active compound, one part by weight of active compound is mixed with the stated amounts of solvents and emulsifier, and the concentrate is diluted with emulsifier-containing water to the desired concentration. Discs of Chinese cabbage (Brassica pekinensis) are sprayed with an active compound preparation of the desired concentration and, after drying, populated with larva of the mustard beetle (Phaedon cochleariae).

[2] = system: green peach aphid (Myzus persicae); experiment: Myzus test (MYZUPE spray treatment); format: in vivo; settings: application rate 500 g/ha, Chinese cabbage leaf discs, after 6 days
Method: Myzus Test (MYZUPE Spray Treatment)
Solvents: 78 parts by weight of acetone
(§2) • 1.5 parts by weight of dimethylformamide Emulsifier: 0.5 part by weight of alkylaryl polyglycol ether
To produce a suitable preparation of active compound, 1 part by weight of active compound is mixed with the stated amounts of solvents and emulsifier, and the concentrate is diluted with emulsifier-containing water to the desired concentration. Discs of Chinese cabbage (Brassica pekinensis) which are infested by all stages of the green peach aphid (Myzus persicae) are sprayed with an active compound preparation of the desired concentration. After 6 days, the effect in % is determined. 100% means that all aphids have been killed; 0% means that none of the aphids have been killed.

[3] = Penetration of active compounds through enzymatically isolated cuticles of apple tree leaves; format: in vitro ADME, apple trees of the cultivar Golden Delicious; settings: 300 ppm in DMF/emulsifier W 7:1 (w/w), 20° C., 60% rh; for Penetration after 24 h, EC + RME (1 g/l) + AS (1 g/l): + RME 1 g/l + ammonium sulphate 1 g/l; for Penetration after 24 h, EC + RME (1 g/l) + DAHP (1 g/l): + RME 1 g/l + diammonium hydrogenphosphate 1 g/l; for Penetration after 24 h, EC + AS (1 g/l): + ammonium sulphate 1 g/l; for Penetration after 24 h, EC + DAHP (1 g/l): + diammonium hydrogenphosphate 1 g/l; for Penetration after 24 h, EC + RME (1 g/l): + rapeseed oil methyl ester 1 g/l; for Penetration after 24 h, EC: EC alone
Method: Example 8: Increase of Penetration into the Plant by Ammonium or Phosphonium Salts and Synergistic Increase of Penetration into the Plant by Ammonium Salts in Combination with Penetrants
In this test, the penetration of active compounds through enzymatically isolated cuticles of apple tree leaves is measured.
Use is made of leaves which, fully developed, are cut from apple trees of the cultivar Golden Delicious. The cuticles are isolated by • initially filling leaf discs punched out and stained with dye on the underside by vacuum infiltration with a pectinase solution (0.2 to 2% strength) buffered to pH between 3 and 4, • then adding sodium azide and • allowing the leaf discs treated in this manner to stand until the original leaf structure has dissolved and the non-cellular cuticles have detached.
Only the cuticles, free from hairs and stoma, of the upper sides of the leaves are then used further. They are washed repeatedly alternately with water and a buffer solution of pH 7. The clean cuticles obtained are then mounted on Teflon plates and smoothed and dried with a gentle stream of air.
In the next step, the cuticle membranes obtained in this manner are placed into stainless steel diffusion cells (=transport chambers) for membrane transport studies. To this end, the cuticles are placed with a pincette into the centre of the edges, coated with silicone fat, of the diffusion cells and closed with a ring, which is also treated with fat. The arrangement is chosen such that the morphological outside of the cuticles is facing outwards, i.e. is exposed to air, whereas the original inside is facing the interior of the diffusion cell.
The diffusion cells are filled with a 30% strength ethylene glycol/water solution. To determine the penetration, in each case 10 μl of the spray liquor of the composition below are applied to the outside of the cuticles. The spray liquor is prepared using local tap water of medium hardness.
After the application of the spray liquors, the water is allowed to evaporate and the chambers are inverted and placed into thermostated tubs in which the temperature and atmospheric humidity over the cuticles can be adjusted using a gentle stream of air onto the cuticles with the spray coating (20° C., 60% rh). At regular intervals, an autosampler takes aliquots and the active compound content is determined by HPLC.
The stated numbers are average values of 8 to 10 measurements. It is clearly evident that even ammonium sulphate on its own improves the penetration markedly, and that, together with RME, a superadditive (synergistic) effect is present.

[4] = system: green peach aphid (Myzus persicae); experiment: Myzus persicae test, activity boost by ammonium salts in combination with penetrants; format: in vivo; settings: bell pepper plants; for Kill rate after 6 days: no additive
Method: Example 9: Activity Boost by Ammonium Salts in Combination with Penetrants
Solvent: 7 parts by weight of dimethylformamide
Emulsifier: 2 parts by weight of alkylaryl polyglycol ether
To produce a suitable preparation of active compound, 1 part by weight of active compound is mixed with the stated amounts of solvent and emulsifier, and the concentrate is diluted with water to the desired concentration. For application with ammonium salts and penetrants (rapeseed oil methyl ester 500 EW) these are in each case added in a concentration of 1000 ppm of a.i. to the spray liquor.
Bell pepper plants (Capsicum annuum) heavily infested by the green peach aphid (Myzus persicae) are sprayed to runoff point with the preparation of active compound at the desired concentration. After the desired period of time, the kill in % is determined. 100% means that all animals have been killed; 0% means that none of the animals have been killed.

[5] = system: caterpillars of the armyworm (Spodoptera frugiperda); experiment: Spodoptera frugiperda test (SPODFR spray treatment); format: in vivo; settings: application rate 500 g/ha, maize leaf discs, after 7 days
Method: Spodoptera frugiperda Test (SPODFR Spray Treatment)
Solvents: 78.0 parts by weight of acetone
as §2
To produce a suitable preparation of active compound, 1 part by weight of active compound is mixed with the stated amounts of solvents and emulsifier, and the concentrate is diluted with emulsifier-containing water to the desired concentration. Discs of maize leaves (Zea mays) are sprayed with an active compound preparation of the desired concentration and, after drying, populated with caterpillars of the armyworm (Spodoptera frugiperda).
After 7 days, the effect in % is determined. 100% means that all caterpillars have been killed; 0% means that none of the caterpillars have been killed.

Boophilus microplus = Boophilus microplus test (BOOPMI injection); format: in vivo; settings: application rate 20 μg/animal; injection into the abdomen; after 7 days
Method: Boophilus microplus Test (BOOPMI Injection)
as §1
To produce a suitable preparation of active compound, 10 mg of active compound are mixed with 0.5 ml of solvent and the concentrate is diluted with solvent to the desired concentration. The solution of active compound is injected into the abdomen (Boophilus microplus) and the animals are transferred into dishes and stored in a climatized room. The activity is monitored for deposition of fertile eggs.
After 7 days, the effect in % is determined. 100% means that none of the ticks has laid any fertile eggs.

SMILES	efficacy (kill in %) (Lucilia cuprina larva)	efficacy (effect in %, beetle larva killed) [1]	efficacy (effect in %, aphids killed) [2]	Penetration after 24 h, EC + RME (1 g/l) + AS (1 g/l) [3]	Penetration after 24 h, EC + RME (1 g/l) + DAHP (1 g/l) [3]	Penetration after 24 h, EC + AS (1 g/l) [3]	Penetration after 24 h, EC + DAHP (1 g/l) [3]	Penetration after 24 h, EC + RME (1 g/l) [3]	Penetration after 24 h, EC [3]	Kill rate after 6 days, +AS (1000 ppm) ([4]; 4 ppm)	Kill rate after 6 days, +RME (1000 ppm) ([4]; 4 ppm)	Kill rate after 6 days, +RME + AS (1000 ppm each) ([4]; 4 ppm)	Kill rate after 6 days ([4]; 4 ppm)	efficacy (effect in %, caterpillars killed) [5]	efficacy (effect in %, 100% = none of the ticks has laid any fertile eggs) (Boophilus microplus)	other results
CCON1CCC2(CC1)NC(=O)C(c1c(C)ccc(-c3ccc(F)cc3)c1C)=C2O [I-a-2]	90%	100%	100%	17%	21%	3.8%	3.9%	1.7%	1.4%	20%	95%	95%	0%	100%	90%	Kill rate after 6 days, +AS (1000 ppm) ([4]; 0.8 ppm): 0%; Kill rate after 6 days, +RME (1000 ppm) ([4]; 0.8 ppm): 0%; Kill rate after 6 days, +RME + AS (1000 ppm each) ([4]; 0.8 ppm): 40%; Kill rate after 6 days ([4]; 0.8 ppm): 0%
CON1CCC2(CC1)NC(=O)C(c1c(C)ccc(-c3ccc(F)cc3)c1C)=C2O [I-a-1]	90%	83%	90%	19%	15%	3.8%	2.3%	0.8%	<0.2%	30%	55%	100%	0%	83%	95%	Kill rate after 6 days, +AS (1000 ppm) ([4]; 20 ppm): 90%; Kill rate after 6 days, +RME (1000 ppm) ([4]; 20 ppm): 95%; Kill rate after 6 days, +RME + AS (1000 ppm each) ([4]; 20 ppm): 100%; Kill rate after 6 days ([4]; 20 ppm): 60%
